Holding throughout (experiment): KINOMEscan (ScanMAX) kinase profiling
Common to all, as to assay type: binding

For experiment [1], the target named is T1, panel of 468 kinases (Homo sapiens, UniProt O15264).
T1 construct: purchased KINOMEscan (ScanMAX) service
T1 sequence (O15264 1-365): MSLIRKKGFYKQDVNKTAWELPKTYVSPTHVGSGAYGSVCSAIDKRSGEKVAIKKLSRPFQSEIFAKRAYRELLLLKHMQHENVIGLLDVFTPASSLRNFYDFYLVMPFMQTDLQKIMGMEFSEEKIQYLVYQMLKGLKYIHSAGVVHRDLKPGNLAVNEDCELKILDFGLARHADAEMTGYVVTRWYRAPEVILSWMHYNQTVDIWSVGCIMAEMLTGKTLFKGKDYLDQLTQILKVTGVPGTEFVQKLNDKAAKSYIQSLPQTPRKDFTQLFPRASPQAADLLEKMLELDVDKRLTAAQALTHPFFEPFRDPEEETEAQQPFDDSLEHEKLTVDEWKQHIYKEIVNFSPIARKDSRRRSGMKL
Particulars: p38-delta; 1 μM; read-out: % control.

For experiment [2], the target named is T2, panel of 468 kinases (Homo sapiens, UniProt O75676).
T2 construct: purchased KINOMEscan (ScanMAX) service
Particulars: 1 μM, read-out: % control.

In experiment [3] the target is T3, panel of 468 kinases (Homo sapiens, UniProt P14616).
T3 construct: purchased KINOMEscan (ScanMAX) service
Particulars: INSRR; 1 μM; read-out: % control.

Experiment [4] concerns the target T4, panel of 468 kinases (Homo sapiens, UniProt P42336, H1047L).
T4 construct: purchased KINOMEscan (ScanMAX) service
The note with it: PIK3CA(H1047L); 1 μM; read-out: % control.

In experiment [5] the target is T5, panel of 468 kinases (Homo sapiens, UniProt P50750).
T5 construct: purchased KINOMEscan (ScanMAX) service
Particulars: CDK9; 1 μM; read-out: % control.

Experiment [6] addresses T6, panel of 468 kinases (Homo sapiens, UniProt Q02763).
T6 construct: purchased KINOMEscan (ScanMAX) service
Particulars: TIE2; 1 μM; read-out: % control.

The target in experiment [7] is T7, panel of 468 kinases (Homo sapiens, UniProt Q12866).
T7 construct: purchased KINOMEscan (ScanMAX) service
T7 sequence (Q12866 21-999): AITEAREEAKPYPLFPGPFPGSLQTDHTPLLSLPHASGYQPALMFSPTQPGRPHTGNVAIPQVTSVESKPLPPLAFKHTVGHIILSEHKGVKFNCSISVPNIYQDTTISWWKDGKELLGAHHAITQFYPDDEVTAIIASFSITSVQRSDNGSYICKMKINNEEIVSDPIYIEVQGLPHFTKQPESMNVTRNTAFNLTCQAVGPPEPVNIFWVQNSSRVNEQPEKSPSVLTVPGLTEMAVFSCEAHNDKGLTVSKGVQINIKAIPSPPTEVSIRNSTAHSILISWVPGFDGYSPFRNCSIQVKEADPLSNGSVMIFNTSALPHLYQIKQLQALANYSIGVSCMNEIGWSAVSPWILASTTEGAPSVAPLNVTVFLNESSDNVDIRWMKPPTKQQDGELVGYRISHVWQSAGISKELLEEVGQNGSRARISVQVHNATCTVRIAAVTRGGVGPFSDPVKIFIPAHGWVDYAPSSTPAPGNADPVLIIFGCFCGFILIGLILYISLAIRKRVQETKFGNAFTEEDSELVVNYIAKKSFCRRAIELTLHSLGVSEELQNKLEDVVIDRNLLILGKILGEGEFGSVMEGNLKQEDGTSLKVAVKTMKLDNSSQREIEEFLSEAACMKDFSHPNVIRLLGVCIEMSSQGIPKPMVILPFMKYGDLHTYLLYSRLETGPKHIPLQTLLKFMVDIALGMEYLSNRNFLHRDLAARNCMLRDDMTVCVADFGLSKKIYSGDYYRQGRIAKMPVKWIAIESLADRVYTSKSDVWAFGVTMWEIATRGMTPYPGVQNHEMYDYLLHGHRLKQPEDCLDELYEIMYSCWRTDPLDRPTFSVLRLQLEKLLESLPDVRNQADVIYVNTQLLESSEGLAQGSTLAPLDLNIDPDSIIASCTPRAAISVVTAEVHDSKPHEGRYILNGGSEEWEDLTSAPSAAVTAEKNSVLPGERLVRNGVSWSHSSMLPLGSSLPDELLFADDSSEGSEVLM
The note with it: MERTK; 1 μM; read-out: % control.

Experiment [8] deals with T8, panel of 468 kinases (Homo sapiens, UniProt Q14004).
T8 construct: purchased KINOMEscan (ScanMAX) service
The note with it: CDC2L5; 1 μM; read-out: % control.

In experiment [9] the target is T9, panel of 468 kinases (Homo sapiens, UniProt Q9BRS2).
T9 construct: purchased KINOMEscan (ScanMAX) service
T9 sequence (Q9BRS2 1-568): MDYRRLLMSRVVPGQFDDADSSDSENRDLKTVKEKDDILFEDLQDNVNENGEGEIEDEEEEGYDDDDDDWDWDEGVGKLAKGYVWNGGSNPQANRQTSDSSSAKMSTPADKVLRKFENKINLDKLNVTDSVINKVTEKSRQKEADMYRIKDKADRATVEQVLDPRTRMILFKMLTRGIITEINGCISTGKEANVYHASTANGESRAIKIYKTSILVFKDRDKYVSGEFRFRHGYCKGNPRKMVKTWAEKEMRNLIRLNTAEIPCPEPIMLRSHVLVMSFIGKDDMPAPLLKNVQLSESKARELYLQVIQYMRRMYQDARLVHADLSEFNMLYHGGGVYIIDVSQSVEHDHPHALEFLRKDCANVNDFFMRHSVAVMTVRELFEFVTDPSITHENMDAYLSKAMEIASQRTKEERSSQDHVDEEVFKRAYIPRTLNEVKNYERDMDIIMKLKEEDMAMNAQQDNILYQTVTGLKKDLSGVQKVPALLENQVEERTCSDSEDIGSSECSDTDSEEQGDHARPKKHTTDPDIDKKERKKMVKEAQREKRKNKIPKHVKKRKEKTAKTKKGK
Particulars: RIOK1; 1 μM; read-out: % control.

The target in experiment [10] is T10, panel of 468 kinases (Homo sapiens, UniProt Q9UPE1).
T10 construct: purchased KINOMEscan (ScanMAX) service
The note with it: SRPK3; 1 μM; read-out: % control.

Like-named read-outs stand apart in the source and are kept apart here.

T10 sequence (Q9UPE1 whole entry): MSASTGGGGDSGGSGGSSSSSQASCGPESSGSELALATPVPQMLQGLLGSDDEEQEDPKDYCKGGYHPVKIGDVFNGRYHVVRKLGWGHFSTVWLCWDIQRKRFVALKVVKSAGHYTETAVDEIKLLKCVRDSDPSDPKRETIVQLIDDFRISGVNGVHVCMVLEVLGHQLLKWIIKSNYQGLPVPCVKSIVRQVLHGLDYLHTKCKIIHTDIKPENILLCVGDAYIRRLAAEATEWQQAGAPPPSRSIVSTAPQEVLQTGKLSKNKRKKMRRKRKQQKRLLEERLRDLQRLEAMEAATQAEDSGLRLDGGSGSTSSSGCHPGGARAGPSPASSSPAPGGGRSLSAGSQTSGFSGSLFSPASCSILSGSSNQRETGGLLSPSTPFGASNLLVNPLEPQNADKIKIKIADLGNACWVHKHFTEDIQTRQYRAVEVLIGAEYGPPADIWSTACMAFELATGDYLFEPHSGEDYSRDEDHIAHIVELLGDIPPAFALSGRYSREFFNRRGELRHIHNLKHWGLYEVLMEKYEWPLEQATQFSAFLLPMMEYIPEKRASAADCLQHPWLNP
T4 sequence (P42336 whole entry H1047L): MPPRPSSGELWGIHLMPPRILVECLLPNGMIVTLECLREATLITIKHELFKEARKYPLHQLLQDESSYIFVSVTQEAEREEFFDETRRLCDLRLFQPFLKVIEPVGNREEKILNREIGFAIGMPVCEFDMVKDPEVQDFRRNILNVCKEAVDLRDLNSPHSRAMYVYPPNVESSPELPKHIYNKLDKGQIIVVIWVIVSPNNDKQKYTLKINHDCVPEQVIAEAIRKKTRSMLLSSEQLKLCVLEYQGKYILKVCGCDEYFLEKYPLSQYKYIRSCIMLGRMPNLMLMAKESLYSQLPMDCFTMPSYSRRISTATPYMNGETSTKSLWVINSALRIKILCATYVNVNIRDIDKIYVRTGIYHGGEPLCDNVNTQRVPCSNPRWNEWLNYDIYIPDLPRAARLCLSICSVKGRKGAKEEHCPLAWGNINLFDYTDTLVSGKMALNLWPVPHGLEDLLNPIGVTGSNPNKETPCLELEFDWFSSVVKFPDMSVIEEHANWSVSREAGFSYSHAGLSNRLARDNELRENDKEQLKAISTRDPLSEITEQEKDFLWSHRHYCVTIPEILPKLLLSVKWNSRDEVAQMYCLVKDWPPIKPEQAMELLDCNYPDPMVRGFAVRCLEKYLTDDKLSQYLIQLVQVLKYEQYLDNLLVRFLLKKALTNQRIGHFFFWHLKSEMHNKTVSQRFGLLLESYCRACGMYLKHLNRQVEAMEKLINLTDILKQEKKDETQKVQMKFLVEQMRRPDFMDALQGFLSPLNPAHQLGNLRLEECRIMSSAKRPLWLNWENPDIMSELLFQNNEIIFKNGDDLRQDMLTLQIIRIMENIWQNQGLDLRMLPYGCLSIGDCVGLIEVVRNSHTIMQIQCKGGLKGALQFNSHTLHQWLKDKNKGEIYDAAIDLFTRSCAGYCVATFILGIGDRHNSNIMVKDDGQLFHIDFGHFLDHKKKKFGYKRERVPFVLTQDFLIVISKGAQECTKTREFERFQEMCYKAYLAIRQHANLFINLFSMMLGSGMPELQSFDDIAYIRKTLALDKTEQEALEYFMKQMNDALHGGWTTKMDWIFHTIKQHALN
T3 sequence (P14616 27-1297): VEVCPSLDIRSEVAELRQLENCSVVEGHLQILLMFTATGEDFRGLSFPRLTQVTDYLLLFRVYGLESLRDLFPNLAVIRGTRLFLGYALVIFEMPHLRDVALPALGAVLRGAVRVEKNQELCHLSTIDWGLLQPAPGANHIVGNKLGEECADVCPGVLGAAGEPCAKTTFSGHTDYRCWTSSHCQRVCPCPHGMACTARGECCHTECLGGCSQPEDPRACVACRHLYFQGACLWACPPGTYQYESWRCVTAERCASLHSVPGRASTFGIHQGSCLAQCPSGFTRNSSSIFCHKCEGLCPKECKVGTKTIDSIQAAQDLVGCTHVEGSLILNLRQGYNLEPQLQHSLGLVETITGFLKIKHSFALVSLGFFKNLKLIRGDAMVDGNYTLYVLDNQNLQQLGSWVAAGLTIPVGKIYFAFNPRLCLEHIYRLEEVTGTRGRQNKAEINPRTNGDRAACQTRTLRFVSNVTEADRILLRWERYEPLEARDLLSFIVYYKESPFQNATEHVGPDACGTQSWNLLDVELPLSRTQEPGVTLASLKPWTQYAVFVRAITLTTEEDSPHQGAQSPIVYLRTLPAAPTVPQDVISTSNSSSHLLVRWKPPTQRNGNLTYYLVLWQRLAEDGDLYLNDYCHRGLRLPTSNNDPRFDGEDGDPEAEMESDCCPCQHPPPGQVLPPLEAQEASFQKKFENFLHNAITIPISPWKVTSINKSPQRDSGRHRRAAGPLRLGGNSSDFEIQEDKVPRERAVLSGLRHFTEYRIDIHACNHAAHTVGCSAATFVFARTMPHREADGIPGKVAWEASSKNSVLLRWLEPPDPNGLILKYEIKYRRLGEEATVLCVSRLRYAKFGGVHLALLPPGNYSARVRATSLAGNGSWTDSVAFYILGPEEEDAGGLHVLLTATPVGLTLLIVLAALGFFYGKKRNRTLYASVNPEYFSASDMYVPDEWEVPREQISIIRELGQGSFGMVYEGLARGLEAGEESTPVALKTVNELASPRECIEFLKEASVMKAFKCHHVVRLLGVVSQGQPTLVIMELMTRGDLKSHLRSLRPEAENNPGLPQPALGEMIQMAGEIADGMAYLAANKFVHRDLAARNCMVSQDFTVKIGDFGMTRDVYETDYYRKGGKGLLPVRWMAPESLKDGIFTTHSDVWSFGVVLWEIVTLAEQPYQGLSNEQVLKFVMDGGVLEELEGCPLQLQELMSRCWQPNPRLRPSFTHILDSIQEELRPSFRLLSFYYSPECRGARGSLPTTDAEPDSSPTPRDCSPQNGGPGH
T8 sequence (Q14004 whole entry): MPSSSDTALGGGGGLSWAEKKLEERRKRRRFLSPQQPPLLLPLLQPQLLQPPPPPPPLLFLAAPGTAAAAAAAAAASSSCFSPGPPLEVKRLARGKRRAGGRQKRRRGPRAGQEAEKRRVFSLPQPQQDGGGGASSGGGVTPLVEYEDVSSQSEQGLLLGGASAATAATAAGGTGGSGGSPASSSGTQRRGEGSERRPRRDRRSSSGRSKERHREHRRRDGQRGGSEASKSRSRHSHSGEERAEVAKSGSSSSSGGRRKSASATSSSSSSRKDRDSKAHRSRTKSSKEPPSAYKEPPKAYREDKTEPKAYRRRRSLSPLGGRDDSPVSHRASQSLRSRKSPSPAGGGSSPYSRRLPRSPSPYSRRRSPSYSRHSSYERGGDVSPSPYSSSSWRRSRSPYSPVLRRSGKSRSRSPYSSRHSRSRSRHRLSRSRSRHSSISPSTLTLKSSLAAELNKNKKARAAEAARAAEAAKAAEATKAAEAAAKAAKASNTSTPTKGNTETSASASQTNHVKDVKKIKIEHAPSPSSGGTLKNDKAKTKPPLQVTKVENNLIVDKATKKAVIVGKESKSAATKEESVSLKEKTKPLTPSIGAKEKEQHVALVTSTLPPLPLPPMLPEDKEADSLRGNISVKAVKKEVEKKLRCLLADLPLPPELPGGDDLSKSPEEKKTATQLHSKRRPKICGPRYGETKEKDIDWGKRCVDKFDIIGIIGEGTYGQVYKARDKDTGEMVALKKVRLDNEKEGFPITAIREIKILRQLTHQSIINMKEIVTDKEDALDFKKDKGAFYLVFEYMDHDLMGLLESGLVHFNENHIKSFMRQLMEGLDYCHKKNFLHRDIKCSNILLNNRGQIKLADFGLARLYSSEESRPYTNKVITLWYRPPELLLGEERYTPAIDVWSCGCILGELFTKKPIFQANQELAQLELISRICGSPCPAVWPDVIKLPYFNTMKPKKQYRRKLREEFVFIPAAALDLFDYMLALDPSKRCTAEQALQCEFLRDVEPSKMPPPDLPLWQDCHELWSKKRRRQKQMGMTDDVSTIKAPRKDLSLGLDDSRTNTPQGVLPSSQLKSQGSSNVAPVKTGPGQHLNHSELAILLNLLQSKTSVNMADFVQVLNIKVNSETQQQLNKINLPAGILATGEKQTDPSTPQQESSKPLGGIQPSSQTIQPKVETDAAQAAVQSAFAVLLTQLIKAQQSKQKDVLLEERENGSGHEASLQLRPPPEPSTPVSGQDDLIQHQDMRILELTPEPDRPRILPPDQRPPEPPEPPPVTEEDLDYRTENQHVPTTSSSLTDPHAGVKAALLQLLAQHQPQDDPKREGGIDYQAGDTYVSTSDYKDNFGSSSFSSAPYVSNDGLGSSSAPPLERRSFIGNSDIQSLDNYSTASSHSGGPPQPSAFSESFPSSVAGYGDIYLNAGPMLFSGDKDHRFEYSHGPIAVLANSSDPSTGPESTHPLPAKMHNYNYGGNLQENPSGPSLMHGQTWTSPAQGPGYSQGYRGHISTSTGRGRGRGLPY
T5 sequence (P50750 whole entry): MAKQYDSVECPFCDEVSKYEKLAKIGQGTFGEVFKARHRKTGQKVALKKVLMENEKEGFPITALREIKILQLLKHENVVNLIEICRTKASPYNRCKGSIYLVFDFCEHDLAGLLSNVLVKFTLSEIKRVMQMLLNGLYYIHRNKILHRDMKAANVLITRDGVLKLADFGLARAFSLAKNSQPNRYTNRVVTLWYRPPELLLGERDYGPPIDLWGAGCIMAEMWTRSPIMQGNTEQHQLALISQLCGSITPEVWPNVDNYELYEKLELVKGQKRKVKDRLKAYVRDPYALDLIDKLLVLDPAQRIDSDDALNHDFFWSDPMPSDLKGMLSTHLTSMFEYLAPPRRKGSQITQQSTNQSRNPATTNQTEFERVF

Take `CNc1nc(Nc2ccc(S(=O)(=O)N3CCC(N4CCOCC4)CC3)cc2OC)nc2[nH]cc(Cl)c12` [Compound 12, 5-chloro-N2-(2-methoxy-4-((4-morpholinopiperidin-1-yl)sulfonyl)phenyl)-N4-methyl-7H-pyrrolo[2,3-d]pyrimidine-2,4-diamine]: the remaining binding at 1 µM turned out to be 100% in experiment [1]; 100% in experiment [2] (RPS6KA4(Kin.Dom.1-N-terminal)); 13% in experiment [2] (RPS6KA4(Kin.Dom.2-C-terminal)); 85% in experiment [3]; 56% in [4]; 100% in experiment [5]. In addition, the remaining binding at 1 µM in experiment [6] turned out to be 94%; in experiment [7] it was 96%; in experiment [8], 54%; in [9], 100%; in experiment [10] it was 99%.
With `CNc1nc(Nc2ccc(C(=O)N3CCC(N4CCOCC4)CC3)c3c2OCO3)nc2[nH]cc(Cl)c12` [Compound 75, (7-((5-chloro-4-(methylamino)-7H-pyrrolo[2,3-d]pyrimidin-2-yl)amino)benzo[d][1,3]dioxol-4-yl)(4-morpholinopiperidin-1-yl)methanone], the remaining binding at 1 µM was determined as 100% in experiment [1]; 89% in [2] (RPS6KA4(Kin.Dom.1-N-terminal)); 3.9% in experiment [2] (RPS6KA4(Kin.Dom.2-C-terminal)); 88% in [3]; 86% in experiment [4]; 100% in experiment [5]. Also, the remaining binding at 1 µM came to 94% in [6]; 85% in [7]; 57% in experiment [8]; 48% in experiment [9]; 40% in experiment [10].
With `CNc1nc(Nc2ccc(P3(=O)CCN(C4CCOCC4)CC3)cc2OC)nc2[nH]cc(Cl)c12` [Compound 77, 4-(4-((5-chloro-4-(methylamino)-7H-pyrrolo[2,3-d]pyrimidin-2-yl)amino)-3-methoxyphenyl)-1-(tetrahydro-2H-pyran-4-yl)-1,4-azaphosphinane 4-oxide], the remaining binding at 1 µM was found to be 100% in experiment [1]; 100% in [2] (RPS6KA4(Kin.Dom.1-N-terminal)); 0.7% in experiment [2] (RPS6KA4(Kin.Dom.2-C-terminal)); 62% in experiment [3]; 61% in experiment [4]; 100% in experiment [5]. Also, the remaining binding at 1 µM in experiment [6] is 100%; in [7], 98%; in experiment [8] it was 55%; in [9], 98%; in [10] it was 88%.
